System: mouse kidney
Assay: Folic acid nephropathy model, High dose vs Low dose FA (histology, qRT-PCR)
Conditions: High dose group compared to Low dose group, day 14
Description: Mice were sacrificed at 1, 2, 3, 7 and 14 days following administration. […] All mice were sacrificed at 14 days.
Formalin fixed, paraffin embedded kidney sections were Masson Trichrome's stained and evaluated by a renal pathologist under a light microscope in blinded fashion relative to sample group. Percent area of fibrosis relative to the total section area was evaluated. Sirius red staining of the […] sections was performed at the Michigan State University Investigative Histopathology Laboratory.
Total RNA was extracted from frozen kidney tissue using TRIzol reagent (Invitrogen). Following RNA concentration measurement by NanoDrop spectrophotometer (Thermo Fischer Scientific), 1 μg RNA was used for cDNA preparation using QuantiTect Reverse Transcription Kit from Qiagen (Valencia, Calif.). qRT-PCR using QuantiFast SYBR Green PCR Kit (Qiagen) was performed in 384-well plates on an Applied Biosystems 7900HT Fast Real-Time PCR System instrument with the following temperature profile: 3 min enzyme activation at 95° C. followed by 40 cycles of 95° C. for 10 s, and 55° C. for 30 s. Primer pairs used are listed in Supplementary Table 1. Gapdh was used as reference gene for normalization. The SDS 2.4 software (Applied Biosystems) was used to compute the threshold cycle (Cq) and the relative expression for an mRNA was assessed using the 2^−ΔCq method.

Nc1nc2ncc(CNc3ccc(C(=O)N[C@@H](CCC(=O)O)C(=O)O)cc3)nc2c(=O)[nH]1 [FA, folic acid]
candidate fibrosis markers mRNA levels: Nine out of ten candidate fibrosis markers showed significantly (p<0.05) higher mRNA levels
